Results published in US20100292231A1, “Indazole Compounds for Treating Inflammatory Disorders, Demyelinating Disorders and Cancers” (priority 2007, published 2010).

Key:
Assay in all cases: SelectScreen kinase specificity survey
Assay type in all cases: biochemical
Conditions in all cases: estimated, abridged dose response curve, read-out: Kinase inhibitory activity EC50
[1] = molecular target: T1, FLT1 (VEGFR1) (Homo sapiens, UniProt P17948)
T1 construct: purchased Invitrogen, Inc. (SelectScreen platform)
How it was run: (§1)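 In a 230-member panel spanning all kinase classes, phosphorylation of kinase-specific substrates at 100 micromolar ATP was read optically. Estimated EC50s came from abridged five-increment titrations fitted to a Hill equation with four parameters.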

[2] = molecular target: T2, MAP2K6 (MKK6) (Homo sapiens, UniProt P52564)
T2 construct: purchased Invitrogen (SelectScreen platform)
T2 sequence (P52564 whole entry): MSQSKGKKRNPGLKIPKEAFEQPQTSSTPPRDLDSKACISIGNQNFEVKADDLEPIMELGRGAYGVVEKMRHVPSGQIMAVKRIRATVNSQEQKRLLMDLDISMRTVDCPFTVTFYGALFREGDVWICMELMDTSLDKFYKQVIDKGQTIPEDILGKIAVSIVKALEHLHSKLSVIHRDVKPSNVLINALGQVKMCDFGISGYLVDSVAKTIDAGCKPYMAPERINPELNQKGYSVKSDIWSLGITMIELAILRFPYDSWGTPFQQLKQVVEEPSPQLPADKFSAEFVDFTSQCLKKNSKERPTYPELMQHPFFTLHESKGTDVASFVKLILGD
How it was run: as §1

[3] = molecular target: T3, FLT3 (Homo sapiens, UniProt P36888)
T3 construct: purchased Invitrogen (SelectScreen platform)
T3 sequence (P36888 27-993): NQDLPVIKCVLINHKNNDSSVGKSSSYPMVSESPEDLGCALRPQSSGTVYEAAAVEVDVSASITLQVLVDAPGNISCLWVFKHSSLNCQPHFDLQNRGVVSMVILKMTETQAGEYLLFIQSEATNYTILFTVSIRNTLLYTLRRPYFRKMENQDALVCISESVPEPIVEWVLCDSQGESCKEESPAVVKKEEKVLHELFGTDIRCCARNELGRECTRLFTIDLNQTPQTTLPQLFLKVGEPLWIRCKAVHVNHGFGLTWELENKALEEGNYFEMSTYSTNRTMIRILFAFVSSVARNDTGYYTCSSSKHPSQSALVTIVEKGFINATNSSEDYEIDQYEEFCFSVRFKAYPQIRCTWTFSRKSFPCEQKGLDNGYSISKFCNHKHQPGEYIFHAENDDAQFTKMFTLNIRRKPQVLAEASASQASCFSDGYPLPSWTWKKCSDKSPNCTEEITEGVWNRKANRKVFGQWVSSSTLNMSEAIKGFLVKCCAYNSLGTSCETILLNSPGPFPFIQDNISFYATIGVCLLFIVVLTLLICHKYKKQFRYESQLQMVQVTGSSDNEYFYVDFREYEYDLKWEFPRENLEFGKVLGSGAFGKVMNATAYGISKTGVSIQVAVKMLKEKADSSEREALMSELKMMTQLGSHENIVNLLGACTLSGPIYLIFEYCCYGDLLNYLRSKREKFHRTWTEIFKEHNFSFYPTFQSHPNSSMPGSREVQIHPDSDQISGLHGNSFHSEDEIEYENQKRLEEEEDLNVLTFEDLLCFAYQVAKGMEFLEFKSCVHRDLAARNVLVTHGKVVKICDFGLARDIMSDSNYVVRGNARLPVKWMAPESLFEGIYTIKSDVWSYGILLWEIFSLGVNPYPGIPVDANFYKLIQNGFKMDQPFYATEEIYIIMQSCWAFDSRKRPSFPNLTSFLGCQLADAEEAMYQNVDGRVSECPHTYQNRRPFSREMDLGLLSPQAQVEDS
How it was run: as §1

[4] = molecular target: T4, PASK (Homo sapiens, UniProt Q96RG2)
T4 construct: purchased Invitrogen, Inc. (SelectScreen platform)
How it was run: as §1

[5] = molecular target: T5, BRAF V599E (Homo sapiens, UniProt P15056, V600E)
T5 construct: purchased Invitrogen, Inc. (SelectScreen platform)
T5 sequence (P15056 416-766 V600E limits assumed): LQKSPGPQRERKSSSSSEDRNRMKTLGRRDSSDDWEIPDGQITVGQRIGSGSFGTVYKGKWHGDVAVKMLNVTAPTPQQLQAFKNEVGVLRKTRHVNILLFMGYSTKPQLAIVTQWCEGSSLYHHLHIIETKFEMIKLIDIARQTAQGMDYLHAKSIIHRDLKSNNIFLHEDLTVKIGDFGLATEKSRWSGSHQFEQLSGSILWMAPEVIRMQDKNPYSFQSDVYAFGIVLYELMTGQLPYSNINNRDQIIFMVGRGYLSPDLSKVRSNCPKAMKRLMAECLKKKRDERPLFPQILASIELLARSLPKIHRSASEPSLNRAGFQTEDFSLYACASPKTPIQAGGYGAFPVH
How it was run: as §1

[6] = molecular target: T6, RPS6KA2 (RSK3) (Homo sapiens, UniProt Q15349)
T6 construct: purchased Invitrogen, Inc. (SelectScreen platform)
T6 sequence (Q15349 whole entry): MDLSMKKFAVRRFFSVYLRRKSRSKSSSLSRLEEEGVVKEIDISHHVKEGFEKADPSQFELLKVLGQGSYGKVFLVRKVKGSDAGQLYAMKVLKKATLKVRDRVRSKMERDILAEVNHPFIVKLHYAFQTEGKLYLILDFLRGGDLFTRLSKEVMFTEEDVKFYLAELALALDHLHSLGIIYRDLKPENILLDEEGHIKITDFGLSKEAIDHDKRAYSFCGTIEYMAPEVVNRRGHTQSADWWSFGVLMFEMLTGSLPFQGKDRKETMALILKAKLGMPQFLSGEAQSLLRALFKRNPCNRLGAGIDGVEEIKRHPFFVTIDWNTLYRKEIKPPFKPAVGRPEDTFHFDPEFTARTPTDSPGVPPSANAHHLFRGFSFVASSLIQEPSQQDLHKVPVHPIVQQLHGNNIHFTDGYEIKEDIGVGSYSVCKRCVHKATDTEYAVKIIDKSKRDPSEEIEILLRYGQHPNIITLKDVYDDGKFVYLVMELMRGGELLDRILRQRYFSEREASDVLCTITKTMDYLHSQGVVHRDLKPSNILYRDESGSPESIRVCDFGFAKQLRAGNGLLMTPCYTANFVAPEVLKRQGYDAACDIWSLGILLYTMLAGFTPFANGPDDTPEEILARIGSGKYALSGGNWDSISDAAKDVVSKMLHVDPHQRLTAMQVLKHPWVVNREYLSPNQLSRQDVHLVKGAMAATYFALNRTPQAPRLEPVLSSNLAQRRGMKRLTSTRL
How it was run: as §1

[7] = molecular target: T7, PRKACA (PKA, PKACA) (Homo sapiens, UniProt P17612)
T7 construct: purchased Invitrogen (SelectScreen platform)
How it was run: as §1

[8] = molecular target: T8, RET Y791F (Homo sapiens, UniProt P07949, Y791F)
T8 construct: purchased Invitrogen (SelectScreen)
T8 sequence (P07949 29-1114 Y791F): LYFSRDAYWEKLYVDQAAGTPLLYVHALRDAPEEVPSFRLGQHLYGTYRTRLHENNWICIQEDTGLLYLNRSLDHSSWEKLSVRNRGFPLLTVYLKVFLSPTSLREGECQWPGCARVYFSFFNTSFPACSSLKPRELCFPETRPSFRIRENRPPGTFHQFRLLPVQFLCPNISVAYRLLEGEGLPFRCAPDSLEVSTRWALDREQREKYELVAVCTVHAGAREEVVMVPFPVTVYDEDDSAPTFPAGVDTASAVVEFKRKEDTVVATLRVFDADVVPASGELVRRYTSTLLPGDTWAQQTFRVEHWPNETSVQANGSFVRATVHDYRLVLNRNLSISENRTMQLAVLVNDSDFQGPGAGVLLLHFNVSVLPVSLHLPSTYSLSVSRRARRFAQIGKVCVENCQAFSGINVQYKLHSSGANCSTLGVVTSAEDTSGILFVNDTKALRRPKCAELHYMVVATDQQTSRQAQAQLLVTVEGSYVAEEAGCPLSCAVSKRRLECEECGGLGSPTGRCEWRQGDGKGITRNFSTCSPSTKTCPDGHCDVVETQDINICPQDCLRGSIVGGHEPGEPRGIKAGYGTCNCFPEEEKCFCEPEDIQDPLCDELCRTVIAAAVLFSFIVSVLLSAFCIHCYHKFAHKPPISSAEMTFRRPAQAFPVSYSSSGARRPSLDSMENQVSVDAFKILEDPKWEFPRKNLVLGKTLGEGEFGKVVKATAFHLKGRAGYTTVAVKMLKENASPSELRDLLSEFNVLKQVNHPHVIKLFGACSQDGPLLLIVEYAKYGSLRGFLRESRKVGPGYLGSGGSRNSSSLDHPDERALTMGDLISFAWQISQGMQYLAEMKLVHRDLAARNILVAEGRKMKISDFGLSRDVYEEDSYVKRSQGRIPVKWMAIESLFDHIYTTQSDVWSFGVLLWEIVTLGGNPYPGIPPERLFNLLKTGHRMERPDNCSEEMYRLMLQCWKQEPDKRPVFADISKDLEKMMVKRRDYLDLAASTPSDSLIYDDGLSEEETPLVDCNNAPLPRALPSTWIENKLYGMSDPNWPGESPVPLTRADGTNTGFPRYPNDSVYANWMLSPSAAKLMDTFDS
How it was run: as §1

[9] = molecular target: T9, STK25 (YSK1) (Homo sapiens, UniProt O00506)
T9 construct: purchased Invitrogen (SelectScreen platform)
T9 sequence (O00506 whole entry): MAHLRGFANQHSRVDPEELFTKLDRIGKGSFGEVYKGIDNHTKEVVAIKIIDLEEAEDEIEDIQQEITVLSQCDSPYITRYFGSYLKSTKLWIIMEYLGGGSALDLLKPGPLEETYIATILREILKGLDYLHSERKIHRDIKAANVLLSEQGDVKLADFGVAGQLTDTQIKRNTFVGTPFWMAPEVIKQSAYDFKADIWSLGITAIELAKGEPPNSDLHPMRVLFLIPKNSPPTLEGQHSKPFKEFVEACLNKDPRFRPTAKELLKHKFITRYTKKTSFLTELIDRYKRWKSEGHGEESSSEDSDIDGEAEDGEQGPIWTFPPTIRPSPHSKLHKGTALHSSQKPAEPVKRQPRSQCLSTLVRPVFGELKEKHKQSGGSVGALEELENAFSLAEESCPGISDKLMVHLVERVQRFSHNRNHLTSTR
How it was run: as §1

[10] = molecular target: T10, EEF2K (Homo sapiens, UniProt O00418)
T10 construct: purchased Invitrogen, Inc. (SelectScreen platform)
How it was run: as §1

[11] = molecular target: T11, PDGFRA (PDGFR alpha) (Homo sapiens, UniProt P16234)
T11 construct: purchased Invitrogen (SelectScreen platform)
T11 sequence (P16234 24-1089): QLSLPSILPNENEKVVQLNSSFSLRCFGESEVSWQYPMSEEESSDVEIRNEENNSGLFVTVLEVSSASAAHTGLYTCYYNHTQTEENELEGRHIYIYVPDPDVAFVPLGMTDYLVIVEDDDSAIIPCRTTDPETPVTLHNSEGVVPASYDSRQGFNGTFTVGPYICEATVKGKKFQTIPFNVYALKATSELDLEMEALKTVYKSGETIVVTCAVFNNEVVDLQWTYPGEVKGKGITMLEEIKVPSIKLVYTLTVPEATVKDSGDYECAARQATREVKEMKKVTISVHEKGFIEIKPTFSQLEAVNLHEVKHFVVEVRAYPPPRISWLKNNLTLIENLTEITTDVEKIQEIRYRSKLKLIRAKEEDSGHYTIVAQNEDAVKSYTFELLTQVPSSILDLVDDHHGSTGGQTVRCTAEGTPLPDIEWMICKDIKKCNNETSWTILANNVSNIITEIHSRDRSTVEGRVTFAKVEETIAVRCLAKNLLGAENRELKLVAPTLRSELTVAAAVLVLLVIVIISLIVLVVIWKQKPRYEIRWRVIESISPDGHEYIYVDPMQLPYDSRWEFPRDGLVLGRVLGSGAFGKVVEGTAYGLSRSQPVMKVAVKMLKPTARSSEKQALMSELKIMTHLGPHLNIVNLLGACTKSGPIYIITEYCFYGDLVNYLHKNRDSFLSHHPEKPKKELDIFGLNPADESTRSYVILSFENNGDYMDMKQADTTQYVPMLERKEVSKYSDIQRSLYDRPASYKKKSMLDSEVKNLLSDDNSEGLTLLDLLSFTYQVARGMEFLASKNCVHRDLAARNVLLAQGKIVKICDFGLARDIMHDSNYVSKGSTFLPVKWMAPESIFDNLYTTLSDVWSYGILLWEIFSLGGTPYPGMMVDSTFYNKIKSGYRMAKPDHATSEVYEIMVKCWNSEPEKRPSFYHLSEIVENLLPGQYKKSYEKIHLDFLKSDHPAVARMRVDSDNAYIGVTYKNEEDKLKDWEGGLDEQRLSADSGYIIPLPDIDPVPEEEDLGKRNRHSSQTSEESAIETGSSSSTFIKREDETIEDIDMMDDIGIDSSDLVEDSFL
How it was run: as §1

[12] = molecular target: T12, PDK1 (Homo sapiens, UniProt O15530)
T12 construct: purchased Invitrogen (SelectScreen platform)
T12 sequence (O15530 whole entry): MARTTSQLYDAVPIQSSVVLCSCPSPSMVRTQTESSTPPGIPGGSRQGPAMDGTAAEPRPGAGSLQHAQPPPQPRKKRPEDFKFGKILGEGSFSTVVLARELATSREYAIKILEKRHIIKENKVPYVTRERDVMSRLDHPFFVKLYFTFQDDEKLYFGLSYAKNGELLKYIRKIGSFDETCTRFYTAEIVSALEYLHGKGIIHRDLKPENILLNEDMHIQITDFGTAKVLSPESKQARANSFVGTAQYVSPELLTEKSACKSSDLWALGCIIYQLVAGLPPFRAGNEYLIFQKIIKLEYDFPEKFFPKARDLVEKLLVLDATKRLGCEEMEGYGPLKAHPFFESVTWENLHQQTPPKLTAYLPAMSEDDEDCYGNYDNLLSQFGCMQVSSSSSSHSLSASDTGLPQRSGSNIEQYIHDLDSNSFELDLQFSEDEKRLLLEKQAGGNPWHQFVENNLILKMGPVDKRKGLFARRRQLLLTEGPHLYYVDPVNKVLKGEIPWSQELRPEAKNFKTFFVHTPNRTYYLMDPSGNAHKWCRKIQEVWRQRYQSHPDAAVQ
How it was run: as §1

[13] = molecular target: T13, MAP3K8 (COT) (Homo sapiens, UniProt P41279)
T13 construct: purchased Invitrogen, Inc. (SelectScreen service)
How it was run: as §1

[14] = molecular target: T14, MAPKAPK3 (Homo sapiens, UniProt Q16644)
T14 construct: purchased Invitrogen, Inc. (SelectScreen platform)
T14 sequence (Q16644 whole entry): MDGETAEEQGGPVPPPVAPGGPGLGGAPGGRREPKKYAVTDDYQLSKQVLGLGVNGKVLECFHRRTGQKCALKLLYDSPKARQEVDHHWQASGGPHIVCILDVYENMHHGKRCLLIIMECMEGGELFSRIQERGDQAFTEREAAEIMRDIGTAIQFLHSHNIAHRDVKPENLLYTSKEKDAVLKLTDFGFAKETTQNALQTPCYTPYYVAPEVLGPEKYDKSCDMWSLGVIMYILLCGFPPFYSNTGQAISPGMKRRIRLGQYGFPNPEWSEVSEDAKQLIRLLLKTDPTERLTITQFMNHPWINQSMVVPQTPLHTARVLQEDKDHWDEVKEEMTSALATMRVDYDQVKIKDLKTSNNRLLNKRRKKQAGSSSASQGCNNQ
How it was run: as §1

[15] = molecular target: T15, CAMK2B (CaMKII beta) (Homo sapiens, UniProt Q13554)
T15 construct: purchased Invitrogen, Inc. (SelectScreen platform)
How it was run: as §1

[16] = molecular target: T16, PRKCI (PKC iota) (Homo sapiens, UniProt P41743)
T16 construct: purchased Invitrogen, Inc. (SelectScreen platform)
How it was run: as §1

Compound	EC50 [1]	EC50 [2]	EC50 [3]	EC50 [4]	EC50 [5]	EC50 [6]	EC50 [7]	EC50 [8]	EC50 [9]	EC50 [10]	EC50 [11]	EC50 [12]	EC50 [13]	EC50 [14]	EC50 [15]	EC50 [16]
CCN(CC)CCNc1ccc2ncn3c4ccc(O)cc4c(=O)c1c23 [Symadex, 5-(2-(diethylamino)ethylamino)-8-hydroxy-6H-imidazo[4,5,1-de]acridin-6-one, reference compound]	> 5 µM	> 5 µM	0.015 µM	4.32 µM	3.4 µM	0.46 µM	> 5 µM	1.24 µM	> 5 µM	> 5 µM	1.23 µM	> 5 µM	4.63 µM	> 5 µM	> 5 µM	> 5 µM
CN(C)CCCNc1ccc2ncn3c4ccc5[nH]ncc5c4c(=O)c1c23 [Compound (IV)]	> 5 µM	> 5 µM	0.008 µM	1.23 µM	1.17 µM	0.84 µM	> 5 µM	0.627 µM	> 5 µM	> 5 µM	0.562 µM	2.9 µM	> 5 µM	> 5 µM	> 5 µM	> 5 µM
